Measured values taken from patent US9376662B2, “Increasing cell culture population doublings for long-term growth of finite life span human cell cultures” (The Regents of the University of California, priority 2006, dated 2016).
Entries after “also recorded” stand apart in the source; their conditions may differ.

Key:
Assay type in all cases: cell-based, human
p16 protein = assay: Immunohistochemical staining for p16 protein and labeling index (LI) in pre-stasis HMEC; conditions: 184 HMEC in M85, 48 days post-seeding, 20% O2
From the text: Note the gradually increasing expression of p16 with passage and the gradual reduction in the growing population. Note also the reciprocity between positive labeling of the small cell population with BrdU and the positive staining of the larger cell population for p16 expression.
Referring now to FIGS. 3-5, which show pre-stasis growth of 184 HMEC in different media and immunohistochemical staining for p16 protein. 184 HMEC were started in M85 and subcultured at passage 2 into M85 with cholera toxin with or without oxytocin, in 20% O2. […] Note the large cells staining for p16 with the small cells still negative for p16 but positive for LI (indicative of DNA synthesis).
(§1) Short-term growth assays are done by measuring 24 hr labeling index (LI) at midconfluence and p16 expression and cell numbers at confluence in different media (as shown in FIG. 13). […] Other assays will transfer growing populations a few passages before stasis to media lacking specific components and assay LI and p16 (as shown in FIG. 12).

pre-stasis HMEC [1] = assay: Long-term growth of pre-stasis HMEC: total population doublings (PD) prior to stasis; conditions: for total PD with oxytocin added to M85: oxytocin added at primary culture or passage 2
Method: See FIG. 7, where the increased PD shown by HMEC from specimen 184, batch ⋄, is also seen in HMEC obtained from the 2 other donors tested, 48R, batch T, and 240L, batch B. Specimen 240L was grown only in M85 with oxytocin from primary organoids. Specimen 48R was grown in M85±oxytocin from primary organoids. For comparison, growth of specimen 184 in MM is shown. 184 HMEC batch ⋄ and 48RT+oxytocin were grown in 20% O2. The other cultures were grown in 3% O2.
HMEC placed in a medium containing ˜1% serum and conditioned media (MM) have active growth for ˜15-30 PD; cells grown in a serum-free medium (MCDB170) show active proliferation for ˜10-20 PD; HMEC grown in MM in a low oxygen environment (3% vs. 20%) grow for an additional ˜4 PD.
as §1

pre-stasis HMEC [2] = assay: Growth of pre-stasis HMEC on different substrates; conditions: compared with plastic
Method: Referring to FIG. 18, 184 HMEC, batch f, were grown in MM in primary culture and switched to M85 at passage 2. At passage 4 they were switched to M87 and grown on plastic (♦), laminin on plastic (▪), or laminin on LUMOX dishes (▴) (which allow the cells to grow on a gas-permeable substrate).
Referring to FIG. 19, pre-stasis 48RT HMEC were grown from primary culture in M85+oxytocin and switched at passage 6 to growth on laminin on plastic or plastic alone.

## CC[C@H](C)[C@@H]1NC(=O)[C@H](Cc2ccc(O)cc2)NC(=O)[C@@H](N)CSSC[C@@H](C(=O)N2CCC[C@H]2C(=O)N[C@@H](CC(C)C)C(=O)NCC(N)=O)NC(=O)[C@H](CC(N)=O)NC(=O)[C@H](CCC(N)=O)NC1=O [oxytocin]
p16 protein
  p16 expression with oxytocin compared to without: lower level of p16 expression
pre-stasis HMEC [1]; 0.1 nM compared with 1.0 nM oxytocin
  growth conditions at the lower oxytocin concentration: provided better growth conditions than 1.0 nM
pre-stasis HMEC [1]; 184 HMEC in M85 with or without oxytocin
  PD potential in the presence of oxytocin: greatly increased PD potential; also recorded: significant increase in total PD
pre-stasis HMEC [1]; M85 base medium, about 45 PD to about 60 PD
  increase in population doublings by oxytocin: 33%
pre-stasis HMEC [1]; M85 base medium
  total PD with oxytocin added to M85: around 60 PD
pre-stasis HMEC [1]; M85 base medium, listed as Oxytocin
  total PD with oxytocin added to M85: up to 60 PD

## laminin
pre-stasis HMEC [2]
  proliferation as the cells approach stasis: more proliferation occurred
